Measurements taken from US12410187B2, “Fused tricyclic compounds useful as anticancer agents” (ASTRAZENECA AB, priority 2019, dated 2025).
Like-named read-outs stand apart in the source and are kept apart here.

Experiments:
[1] = test system: MDR1 (Pgp) and BCRP; experiment: Blood brain barrier penetrant assessment: efflux ratio in MDCK_MDR1_BCRP cells; type: in vitro ADME; conditions: human, MDCK cells doubly transfected with MDR1 (Pgp) and BCRP, ratio of 2 or less = potential for good BBB penetration, read-out: Hu MDCK-MDR1-BCRP (0.1 uM) Mean Efflux Ratio
Protocol: In order to evaluate blood brain barrier (BBB) penetrant properties the efflux properties of compounds according to the specification was measured in cells transfected with the major efflux pumps expressed in the endothelial cells of the BBB. The assessment of efflux properties was performed using Madin-Darby Canine Kidney (MDCK) cells doubly transfected with MDR1 (Pgp) and BCRP. The transfected cell line, MDCK_MDR1_BCRP, thus expresses the two main efflux pumps that actively serve to exclude transit of compounds across the BBB and the efflux ration from these cell can be measured as described in the literature (Durant et al, Sci. Adv. 2018; eeat:1719). A compound that has an efflux ratio of 2 or less as measured by this technique is identified as having the potential for good BBB penetrant properties (Colclough et al, Drug Disc. Today 2019; 24(5), 1067-73).

[2] = molecular target: T1, KRasG12C (Homo sapiens, UniProt P01116, G12C); experiment: KRasG12C functional assay (HTRF/FRET nucleotide exchange and Raf RBD binding); type: biochemical; conditions: samples incubated for 4 hrs, FRET readout, single experiment or average of two or more
T1 construct: biotin (biotinylated); made in house
Protocol: All enzyme and substrate solutions were prepared in assay buffer containing 20 mM HEPES (pH 7.5), 5 mM MgCl2, 150 mM NaCl, and 0.01% Tween 20. […] In a separate mix 20 nM GST-Raf Ras binding domain (GST-Raf RBD, purified in house) and 4 μg/ml anti-GST XL665 antibody (Cisbio) was prepared in assay buffer containing 50 mM Potassium Fluoride and 0.05 mg/ml BSA and equilibrated for 4 hours before adding 0.6 μM Guanosine 5′-[γ-thio]triphosphate (GTPγS, Sigma) and 0.08 μM SOS (purified in house). 5 μl of the GST-RAF RBD mix was then dispensed into each well of the assay plate. […] This is detected simultaneously via the specific binding interaction between active GTPγS KRas^G12C with GST-Raf RBD which brings the europium and XL665 into close proximity enabling an increased FRET signal to be detected on a Pherastar (BMG) plate reader equipped with the HTRF filter module. […] IC50 values were calculated from normalised dose-response response FRET data curve fitted in Genedata screener (Basel, Switzerland).

[3] = GDP loaded biotinylated KRasG12C, read-out: KRasG12C functional assay IC50
[4] = KRasG12C functional assay IC50, GDP loaded biotinylated KRasG12C

T1 sequence (P01116 1-188 isoform P01116-2 G12C): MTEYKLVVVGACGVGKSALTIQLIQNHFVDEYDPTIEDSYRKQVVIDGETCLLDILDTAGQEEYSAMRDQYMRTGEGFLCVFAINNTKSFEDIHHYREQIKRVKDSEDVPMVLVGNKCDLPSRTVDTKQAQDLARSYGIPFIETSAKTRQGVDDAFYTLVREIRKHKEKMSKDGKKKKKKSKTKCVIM

Row | efflux ratio at 0.1 uM [1] | IC50 [2, 3] [nM] | IC50 [2, 4] [nM] | SMILES
1 | 0.5 | 67 | – | C=CC(=O)N1CCN2C(=O)c3cc(F)c(-c4c(O)cccc4F)c(Cl)c3OC[C@H]2C1 (single isomer, unassigned) [Example 11]
2 | 0.8 | 24 | – | C=CC(=O)N1CCN2Cc3cc(Cl)c(-c4c(O)cccc4F)c(Cl)c3OC[C@H]2C1 (single isomer, unassigned) [Example 27]
3 | 1.8 | 42 | – | C=CC(=O)N1CCN2Cc3cc(F)c(-c4c(O)cccc4Cl)c(Cl)c3OC[C@H]2C1 (single isomer, unassigned) [Example 35]
4 | 0.9 | 65 | – | C=CC(=O)N1CCN2Cc3cc(F)c(-c4c(O)cccc4C(F)(F)F)c(F)c3OC[C@H]2C1 (single isomer, unassigned) [Example 49]
5 | 1.5 | 660 | – | C=CC(=O)N1CCN2Cc3cc(F)c(-c4c(O)cccc4C(F)F)c(F)c3OC[C@H]2C1 (single isomer, unassigned) [Example 53]
6 | 0.8 | 32 | – | C=CC(=O)N1CCN2Cc3cc(F)c(-c4c(O)cccc4Br)c(F)c3OC[C@H]2C1 (single isomer, unassigned) [Example 59]
7 | 0.3 | 27.7 | – | C=CC(=O)N1CCN2Cc3cc(Cl)c(-c4c(C)cccc4O)c(F)c3OC[C@H]2C1 (single isomer, unassigned) [Example 61]
8 | 1.4 | 182 | – | C#Cc1c2c(cc(F)c1-c1c(C)cccc1O)CN1CCN(C(=O)C=C)C[C@@H]1CO2 (single isomer, unassigned) [Example 65]
9 | 0.8 | – | 18.6 | C#Cc1cc2c(c(F)c1-c1c(O)cccc1Cl)OC[C@H]1CN(C(=O)C=C)CCN1C2 (single isomer, unassigned) [Example 76]
10 | – | – | 937 | C#Cc1cc2c(c(F)c1-c1c(O)cccc1Cl)OC[C@H]1CN(C(=O)C=C)CCN1C2 (single isomer, unassigned) [Example 77]
11 | 0.7 | 83 | – | C#Cc1cc2c(c(Cl)c1-c1c(O)cccc1F)OC[C@H]1CN(C(=O)C=C)CCN1C2 (single isomer, unassigned) [Example 80]
12 | – | 61 | – | C=CC(=O)N1CCN2Cc3c(c(Cl)c(-c4c(O)cccc4Cl)c4ncn(C)c34)OC[C@H]2C1 (single isomer, unassigned) [Example 82]
13 | 0.6 | – | 25 | C=CC(=O)N1CCN2Cc3cc(Cl)c(-c4c(O)cccc4Cl)c(F)c3OC[C@H]2C1 (single isomer, unassigned) [Example 84]
14 | 0.9 | – | 15 | C=CC(=O)N1CCN2Cc3cc(C#CC)c(-c4c(O)cccc4Cl)c(F)c3OC[C@H]2C1 (single isomer, unassigned) [Example 86]
15 | – | 13 | – | C#Cc1nc2c(c(Cl)c1-c1c(O)cccc1Cl)OC[C@@H]1CN(C(=O)C=C)CCN1C2 (single isomer, unassigned) [Example 88]
16 | 0.6 | 54 | – | C#Cc1cc2c(c(C)c1-c1c(O)cccc1Cl)OC[C@H]1CN(C(=O)C=C)CCN1C2 (single isomer, unassigned) [Example 90]
17 | 0.7 | 53 | – | C=CC(=O)N1CCN2Cc3c(F)c(F)c(-c4c(O)cccc4Cl)c(Cl)c3OC[C@H]2C1 (single isomer, unassigned) [Example 92]
18 | – | – | 14 | C=CC(=O)N1CCN2Cc3cc(OC(F)F)c(-c4c(O)cccc4Cl)c(F)c3OC[C@H]2C1 (single isomer, unassigned) [Example 94]
19 | 0.9 | 19 | – | C#Cc1c(F)c2c(c(F)c1-c1c(O)cccc1Cl)OC[C@H]1CN(C(=O)C=C)CCN1C2 (single isomer, unassigned) [Example 95]

Row | efflux ratio at 0.1 uM [1] | IC50 [2, 3] [nM] | IC50 [2, 4] [nM] | SMILES
20 | – | 11 | – | C=CC(=O)N1CCN2Cc3cc(OC(F)F)c(-c4c(O)cccc4Cl)c(Cl)c3OC[C@H]2C1 (single isomer, unassigned) [Example 98]
21 | – | – | 80 | C=CC(=O)N1CCN2Cc3cc(OC4CC4)c(-c4c(O)cccc4Cl)c(F)c3OC[C@H]2C1 (single isomer, unassigned) [Example 100]
22 | – | 28 | – | C=CC(=O)N1CCN2Cc3cc(C#CCN(C)C)c(-c4c(O)cccc4Cl)c(F)c3OC[C@H]2C1 (single isomer, unassigned) [Example 102]
23 | – | 27 | – | C=CC(=O)N1CCN2Cc3cc(OCc4ccncc4)c(-c4c(O)cccc4Cl)c(F)c3OC[C@H]2C1 (single isomer, unassigned) [Example 104]
24 | – | 43 | – | C=CC(=O)N1CCN2Cc3cc(OCCOC)c(-c4c(O)cccc4Cl)c(Cl)c3OC[C@H]2C1 (single isomer, unassigned) [Example 106]
25 | – | 64 | – | C=CC(=O)N1CCN2Cc3cc(OCCN4CCCCC4)c(-c4c(O)cccc4Cl)c(F)c3OC[C@H]2C1 (single isomer, unassigned) [Example 108]
26 | – | 55 | – | C=CC(=O)N1CCN2Cc3c(OCCN(C)C)cc(-c4c(O)cccc4Cl)c(F)c3OC[C@H]2C1 (single isomer, unassigned) [Example 115]
27 | – | 53 | – | C=CC(=O)N1CCN2Cc3c(OCCN(C)C)cc(-c4c(O)cccc4Cl)c(F)c3OC[C@H]2C1 (single isomer, unassigned) [Example 116]
28 | – | 30 | – | C=CC(=O)N1CCN2Cc3c(C#CC)nc(-c4c(O)cccc4Cl)c(Cl)c3OC[C@H]2C1 (single isomer, unassigned) [Example 118]
29 | – | 51 | – | C#Cc1nc(-c2c(O)cccc2Cl)c(Cl)c2c1CN1CCN(C(=O)C=C)C[C@@H]1CO2 (single isomer, unassigned) [Example 120]
30 | – | 157 | – | C=CC(=O)N1CCN2Cc3c(OC)cc(-c4c(O)cccc4F)c(Cl)c3OC[C@H]2C1 [Example 5, 1-[(12aR)-10-Chloro-9-(2-fluoro-6-hydroxyphenyl)-7-methoxy-3,4,12,12a-tetrahydro-6H-pyrazino[2,1-c][1,4]benzoxazepin-2(1H)-yl]prop-2-en-1-one]
31 | – | 103 | – | C=CC(=O)N1CCN2C(=O)c3c(O)cc(-c4c(O)cccc4F)c(Cl)c3OC[C@H]2C1 [Example 6, (12aR)-10-chloro-9-(2-fluoro-6-hydroxyphenyl)-7-hydroxy-2-(prop-2-enoyl)-1,2,3,4,12,12a-hexahydro-6H-pyrazino[2,1-c][1,4]benzoxazepin-6-one]
32 | – | 1280 | – | C=CC(=O)N1CCN2Cc3c(-n4ccnc4)cc(-c4c(O)cccc4F)c(Cl)c3OC[C@H]2C1 [Example 15, 1-[(12aR)-10-Chloro-9-(2-fluoro-6-hydroxyphenyl)-7-(1H-imidazol-1-yl)-3,4,12,12a-tetrahydro-6H-pyrazino[2,1-c][1,4]benzoxazepin-2(1H)-yl]prop-2-en-1-one]
33 | – | 430 | – | C=CC(=O)N1CCN2Cc3c(C#N)cc(-c4c(O)cccc4F)c(Cl)c3OC[C@H]2C1 [Example 16, (12aR)-10-Chloro-9-(2-fluoro-6-hydroxyphenyl)-2-(prop-2-enoyl)-1,2,3,4,12,12a-hexahydro-6H-pyrazino[2,1-c][1,4]benzoxazepine-7-carbonitrile]
34 | – | 361 | – | C=CC(=O)N1CCN2Cc3c(-n4cccn4)cc(-c4c(O)cccc4F)c(Cl)c3OC[C@H]2C1 [Example 17, 1-[(12aR)-10-Chloro-9-(2-fluoro-6-hydroxyphenyl)-7-(1H-pyrazol-1-yl)-3,4,12,12a-tetrahydro-6H-pyrazino[2,1-c][1,4]benzoxazepin-2(1H)-yl]prop-2-en-1-one]
35 | – | 790 | – | C=CC(=O)N1CCN2Cc3c(Cl)nc(-c4c(O)cccc4F)c(Cl)c3OC[C@H]2C1 [Example 68, 1-[(6aR)-1,4-Dichloro-3-(2-fluoro-6-hydroxyphenyl)-6a,7,9,10-tetrahydro-12H-pyrazino[2,1-c]pyrido[3,4-f][1,4]oxazepin-8(6H)-yl]prop-2-en-1-one]
36 | – | 618 | – | C=CC(=O)N1CCN2Cc3c(c(Cl)c(-c4c(O)cccc4F)[nH]c3=O)OC[C@H]2C1 [Example 69, (6aR)-4-Chloro-3-(2-fluoro-6-hydroxyphenyl)-8-(prop-2-enoyl)-2,6,6a,7,8,9,10,12-octahydro-1H-pyrazino[2,1-c]pyrido[3,4-f][1,4]oxazepin-1-one]
37 | – | 83 | – | C=CC(=O)N1CCN2Cc3cc(COC)c(-c4c(O)cccc4Cl)c(Cl)c3OC[C@H]2C1 [Example 114, 1-[(12aR)-10-Chloro-9-(2-chloro-6-hydroxyphenyl)-8-(methoxymethyl)-3,4,12,12a-tetrahydro-6H-pyrazino[2,1-c][1,4]benzoxazepin-2(1H)-yl]prop-2-en-1-one]
